Data taken from US11440913B2, “Aminoimidazopyridazines as kinase inhibitors” (BRISTOL-MYERS SQUIBB COMPANY, priority 2017, dated 2022).
Where a name gives a salt, the structure may show the parent alone. Read-outs that look alike come from different tables or passages of the source.

Assays:
[1] = target: His-GST-TVMV-hRIPK1(1-324) (Homo sapiens (Human), UniProt Q13546); assay: RIPK1 HTRF Binding Assay; conditions: HTRF binding, 1 h at rt, read-out: RIPK1 (IC50)
Method in brief: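 HTRF probe-displacement binding: 1 nM His-GST-TVMV-hRIPK1(1-324) (baculovirus construct), 90.6 nM probe, 0.2 nM anti-GST-Tb in 20 mM HEPES, 10 mM MgCl2, 0.015% Brij-35, 4 mM DTT, 0.05 mg/mL BSA. Incubated 1 h at rt; FRET 520/495 nm ratio, inhibition relative to DMSO-only wells.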

[2] = test system: MLKL phosphorylation in HT29-L23 human colorectal adenocarcinoma cells; assay: MLKL Phosphorylation High-Content Assay; assay type: cell-based; conditions: 6 h, necroptosis induced with TNFα, SMAC mimetic and Z-VAD, read-out: pMLKL (IC50)
Method in brief: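 HT29-L23 cells pretreated 30 min at 37 °C with compound (6.25 to 0.106 μM final), then necroptosis induced with TNFα 35 ng/mL, SMAC mimetic 700 nM and Z-VAD 140 nM for 6 h. Fixed cells immunostained for MLKL pS358 and imaged; IC50 and Ymax from 4-parameter logistic fit.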

Sequence of His-GST-TVMV-hRIPK1(1-324) (Q13546 1-324): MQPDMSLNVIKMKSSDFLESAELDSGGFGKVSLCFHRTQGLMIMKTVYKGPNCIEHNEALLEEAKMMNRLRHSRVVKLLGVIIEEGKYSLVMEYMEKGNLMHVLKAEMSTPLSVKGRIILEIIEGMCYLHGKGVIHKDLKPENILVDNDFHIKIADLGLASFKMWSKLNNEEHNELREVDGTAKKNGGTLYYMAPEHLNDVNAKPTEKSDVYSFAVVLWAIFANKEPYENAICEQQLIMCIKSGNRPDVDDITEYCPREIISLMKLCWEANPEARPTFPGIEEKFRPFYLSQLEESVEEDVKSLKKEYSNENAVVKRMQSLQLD

| Structure (SMILES) | IC50 [1] | IC50 ([2]; Homo sapiens) | IC50 [2] | IC50 ([1]; TFA) | IC50 ([2]; TFA) |
| --- | --- | --- | --- | --- | --- |
| CC(=O)Nc1cn2nc(-c3ccc(F)c(C(=O)N[C@@H](C)c4cc(OC(F)(F)F)ccc4F)c3F)ccc2n1 [Example 379, 3-{2-acetamidoimidazo [1,2-b]pyridazin-6-yl}-2,6-difluoro-N-[(1S)-1-[2-fluoro-5-(trifluoromethoxy)phenyl]ethyl] benzamide] | 1 nM | 5 nM | – | – | – |
| CC(=O)Nc1cn2nc(-c3cnc(C)c(C(=O)NC(C)c4cc(C(F)(F)F)ccc4F)c3)ccc2n1 (centres unmarked) [Example 204, 5-{2-acetamidoimidazo[1,2-b]pyridazin-6-yl}-N-{1-[2-fluoro-5-(trifluoromethyl)phenyl]ethyl}-2-methylpyridine-3-carboxamide] | 122 nM | 83 nM | – | – | – |
| [2H]C([2H])([2H])Oc1ncc(-c2ccc3nc(NC(C)=O)cn3n2)cc1C(=O)NCc1ccccc1OC(F)(F)F [Example 14, 5-{2-acetamidoimidazo[1,2-b]pyridazin-6-yl}-2-(D3)methoxy-N-{[2-(trifluoromethoxy)phenyl]methyl}pyridine-3-carboxamide] | 33 nM | 69 nM | – | – | – |
| Cc1ncc(-c2ccc3nc(NC(=O)CO)cn3n2)cc1C(=O)N[C@H](C)c1cc(C(F)(F)F)ccc1F [Example 182, N-[(1R)-1-[2-fluoro-5-(trifluoromethyl)phenyl]ethyl]-5-[2-(2-hydroxyacetamido)imidazo [1,2-b]pyridazin-6-yl]-2-methylpyridine-3-carboxamide, TFA] | 272 nM | 455 nM | – | – | – |
| [2H]C([2H])([2H])Oc1ncc(-c2ccc3nc(NC(C)=O)cn3n2)cc1C(=O)NCc1ccc(F)c(F)c1OCC1CC1 [Example 53, N-{[2-(cyclopropylmethoxy)-3,4-difluorophenyl]methyl}-5-{2-acetamidoimidazo[1,2-b]pyridazin-6-yl}-2-(D3)methoxypyridine-3-carboxamide] | 62 nM | 81 nM | – | – | – |
| CC(=O)Nc1cn2nc(-c3ccc(C)c(C(=O)NCc4cc(OC(F)(F)F)ccc4F)c3)ccc2n1 [Example 394, 5-{2-acetamidoimidazo [1,2-b]pyridazin-6-yl}-N-{[2-fluoro-5-(trifluoromethoxy)phenyl]methyl}-2-methylbenzamide] | 3 nM | 3 nM | – | – | – |
| CC(=O)Nc1cn2nc(-c3cnc(C)c(C(=O)NC(C)c4ccccc4OC(F)(F)F)c3)ccc2n1 (centres unmarked) [Example 202, 5-{2-acetamidoimidazo[1,2-b]pyridazin-6-yl}-2-methyl-N-{1-[2-(trifluoromethoxy)phenyl]ethyl}pyridine-3-carboxamide] | 32 nM | – | 34 nM | – | – |
| COc1nc(C)c(-c2ccc3nc(NC(C)=O)cn3n2)cc1C(=O)NCc1ccccc1OC1CCOC1 (centres unmarked) [Example 307, 5-{2-acetamidoimidazo[1,2-b]pyridazin-6-yl}-2-methoxy-6-methyl-N-{[2-(oxolan-3-yloxy)phenyl]methyl}pyridine-3-carboxamide] | 11 nM | – | 5 nM | – | – |
| CC(=O)Nc1cn2nc(-c3cc(C(=O)NCc4cc(OC(F)(F)F)ccc4F)c(C)nc3C)ccc2n1 [Example 81, 5-{2-acetamidoimidazo[1,2-b]pyridazin-6-yl}-N-{[2-fluoro-5-(trifluoromethoxy)phenyl]methyl}-2,6-dimethylpyridine-3-carboxamide] | 5 nM | 2 nM | – | – | – |
| COc1ncc(-c2ccc3nc(NC(C)=O)cn3n2)cc1C(=O)N[C@H](C)c1cc(OC(F)(F)F)ccc1F [Example 109, 5-{2-acetamidoimidazo[1,2-b]pyridazin-6-yl}-N-[(1R)-1-[2-fluoro-5-(trifluoromethoxy)phenyl](2,2,2-deutero)ethyl]-2-methoxypyridine-3-carboxamide] | 32 nM | – | 85 nM | – | – |
| CC(=O)Nc1cn2nc(-c3cc(C(=O)NCc4cc(F)cc(F)c4OCC4CCCC4)c(C)nc3C)ccc2n1 [Example 90, N-{[2-(cyclopentylmethoxy)-3,5-difluorophenyl]methyl}-5-{2-acetamidoimidazo[1,2-b]pyridazin-6-yl}-2,6-dimethylpyridine-3-carboxamide] | 5 nM | 3 nM | – | – | – |
| CC(=O)Nc1cn2nc(-c3cnc(C)c(C(=O)NCc4cc(OCC5CC5)ccc4F)c3)ccc2n1 [Example 215, N-{[5-(cyclopropylmethoxy)-2-fluorophenyl]methyl}-5-{2-acetamidoimidazo[1,2-b]pyridazin-6-yl}-2-methylpyridine-3-carboxamide] | 8 nM | 22 nM | – | – | – |
| [2H]C([2H])(NC(=O)c1cc(-c2ccc3nc(NC(C)=O)cn3n2)cnc1C)c1cc(OC(F)(F)F)ccc1F [Example 208, 5-{2-acetamidoimidazo[1,2-b]pyridazin-6-yl}-N-{[2-fluoro-5-(trifluoromethoxy)phenyl] (deutero)methyl}-2-methylpyridine-3-carboxamide] | 5 nM | 5 nM | – | – | – |
| COc1ncc(-c2ccc3nc(NC(C)=O)cn3n2)cc1C(=O)NC(C)c1c(F)cccc1OCC1CC1 (centres unmarked) [Example 124, N-{1-[2-(cyclopropylmethoxy)-6-fluorophenyl]ethyl}-5-{2-acetamidoimidazo[1,2-b]pyridazin-6-yl}-2-methoxypyridine-3-carboxamide, TFA] | – | – | – | 6 nM | 14 nM |
| COc1nc(C)c(-c2ccc3nc(NC(C)=O)cn3n2)cc1C(=O)NCc1ccccc1OCC1CC1 [Example 318, N-{[2-(cyclopropylmethoxy)phenyl]methyl}-5-{2-acetamidoimidazo[1,2-b]pyridazin-6-yl}-2-methoxy-6-methylpyridine-3-carboxamide] | 3 nM | 2 nM | – | – | – |
| [2H]C([2H])([2H])[C@@H](NC(=O)c1cc(-c2ccc3nc(NC(C)=O)cn3n2)c(C)nc1C)c1cc(OC(F)(F)F)ccc1F [Example 70, 5-{2-acetamidoimidazo[1,2-b]pyridazin-6-yl}-N-[(1R)-1-[2-fluoro-5-(trifluoromethoxy)phenyl](2,2,2-deutero)ethyl]-2,6-dimethylpyridine-3-carboxamide] | 9 nM | 9 nM | – | – | – |
| COc1ncc(-c2ccc3nc(NC(C)=O)cn3n2)cc1C(=O)NC[C@H]1C[C@@H]1c1ccc(F)cc1 [Example 161, 5-{2-acetamidoimidazo[1,2-b]pyridazin-6-yl}-N-{[(1S,2S)-2-(4-fluorophenyl)cyclopropyl]methyl}-2-methoxypyridine-3-carboxamide] | 145 nM | 311 nM | – | – | – |
| CCC(=O)Nc1cn2nc(-c3cnc(OC)c(C(=O)NCC[C@H](O)c4ccc(Cl)cc4)c3)ccc2n1 [Example 246, N-[(3S)-3-(4-chlorophenyl)-3-hydroxypropyl]-2-methoxy-5-{2-propanamidoimidazo[1,2-b]pyridazin-6-yl}pyridine-3-carboxamide] | 92 nM | 105 nM | – | – | – |
| [2H]C([2H])([2H])[C@@H](NC(=O)c1c(C)ccc(-c2ccc3nc(NC(C)=O)cn3n2)c1F)c1cc(OC(F)(F)F)ccc1F [Example 412, 3-{2-acetamidoimidazo [1,2-b]pyridazin-6-yl}-2-fluoro-N-[(1R)-1-[2-fluoro-5-(trifluoromethoxy)phenyl](2,2,2-Â^2Hâ,f)ethyl]-6-methylbenzamide] | 4 nM | 1 nM | – | – | – |
| Cc1ncc(-c2ccc3nc(NC(=O)CN4CC(F)(F)C4)cn3n2)cc1C(=O)NCC[C@@H](O)c1ccc(Cl)cc1 [Example 344, N-[(3R)-3-(4-chlorophenyl)-3-hydroxypropyl]-5-{2-[2-(3,3-difluoroazetidin-1-yl)acetamido]imidazo[1,2-b]pyridazin-6-yl}-2-methylpyridine-3-carboxamide] | 266 nM | 37 nM | – | – | – |
| CC(=O)Nc1cn2nc(-c3cnc(Cl)c(C(=O)NCc4cccc(OC(F)(F)F)c4)c3)ccc2n1 [Example 272, 2-chloro-5-{2-acetamidoimidazo[1,2-b]pyridazin-6-yl}-N-{[3-(trifluoromethoxy)phenyl]methyl}pyridine-3-carboxamide, TFA] | 26 nM | – | 122 nM | – | – |
| CCc1ncc(-c2ccc3nc(NC(C)=O)cn3n2)cc1C(=O)N[C@H](C)c1cc(OC(F)(F)F)ccc1F [Example 328, 5-{2-acetamidoimidazo[1,2-b]pyridazin-6-yl}-2-ethyl-N-[(1R)-1-[2-fluoro-5-(trifluoromethoxy)phenyl]ethyl]pyridine-3-carboxamide] | 36 nM | 198 nM | – | – | – |
| COc1ncc(-c2ccc3nc(NC(C)=O)cn3n2)cc1C(=O)NCc1ccccc1-n1cccc1 [Example 160, 5-{2-acetamidoimidazo[1,2-b]pyridazin-6-yl}-2-methoxy-N-{[2-(1H-pyrrol-1-yl)phenyl]methyl}pyridine-3-carboxamide] | 489 nM | 331 nM | – | – | – |
| [2H]C([2H])([2H])[C@H](NC(=O)c1cc(-c2ccc3nc(NC(C)=O)cn3n2)cnc1C)c1cc(C(F)(F)F)ccc1F [Example 196, 5-{2-acetamidoimidazo[1,2-b]pyridazin-6-yl}-N-[(1S)-1-[2-fluoro-5-(trifluoromethyl)phenyl](2,2,2-deutero)ethyl]-2-methylpyridine-3-carboxamide] | 45 nM | 5 nM | – | – | – |
| [2H]C([2H])([2H])Oc1nc(C)c(-c2ccc3nc(NC(C)=O)cn3n2)cc1C(=O)NCc1cc(OC(F)(F)F)ccc1F [Example 179, 5-{2-acetamidoimidazo[1,2-b]pyridazin-6-yl}-N-{[2-fluoro-5-(trifluoromethoxy)phenyl]methyl}-2-(deutero)methoxy-6-methylpyridine-3-carboxamide] | 3 nM | 13 nM | – | – | – |
